A word on the MIC: it is the lowest concentration that inhibits growth of the organism. As a reminder, the IC50 is the point on the concentration scale where inhibition reaches its midpoint. A word on the MBC: it is the smallest concentration meeting the test's criterion for killing. Read a high MBC as less potent killing. One may read the pIC50 as −log10 of the IC50, conventionally taken in molar units. Lower therefore signals a large IC50.

The record followed here is patent US6194399A, “Aryldiamine derivatives useful as antibacterial agents” (Scriptgen Pharmaceuticals, Inc., priority 1999, dated 2001).

Structures are written as SMILES. pIC50: −log10 of the molar value. Converted amounts (≈) assume the structure as drawn. Where two headings read alike, the source gives them in different places.

Test [1] concerns wild-type S. aureus. Put plainly: MIC, broth microdilution assay. The test is classed as cell-based. As to conditions: Staphylococcus aureus. Here is the method:
(§1) The antimicrobial activity of a compound or formulation according to the invention is determined by exposing a culture comprising a bacterial species to different concentrations of the compound or formulation and monitoring the effects on growth relative to a control culture not exposed to the compound. Any method known in the art may be used to assess bacterial growth. Antimicrobial effects are expressed as Minimal Inhibitory Concentration (MIC) and Minimum Bactericidal Concentration (MBC).
(§2) The MIC may be expressed as a range between the concentration at which no growth is observed and the concentration of the dilution which immediately follows.
(§3) Typically, MIC is measured using a broth microdilution assay as follows. Dilution of candidate antimicrobial compounds in culture medium is performed in a sterile, covered 96-well microtiter plate with flat bottom wells (Costar #9017). The final concentrations of the compounds are typically 100, 50, 25, 12.5, 6.25, 3.12, 1.56, 0.78, 0.39, 0.20, 0.10, and 0.05 μg/mL, respectively. Culture medium only (containing no bacteria) is also included as a negative control for each plate. Ampicillin and rifampin are used as positive controls against all bacterial strains in every experiment.
(§4) The overnight culture of a single colony is diluted in sterile medium so that, after inoculation, each well contains approximately 5×10^5CFU/mL. Within 15 minutes of preparation, […] of the adjusted inoculum suspension is added to the microliter plate. Each well is diluted with an equal volume of the antimicrobial compounds or control solution. The inoculated microtiter plate is typically incubated at 35° C. for 16-20 hours. The turbidity of each well is determined by measuring the absorbance at 595 nm using a BioRad Model 3550-UV microplate reader.
(§5) The antimicrobial activities of the compounds of the invention, expressed as MIC and MBC, were determined as described above, using as tester strains wild-type S. aureus, rifampicin-resistant S. aureus, wild-type E. coli, and E. coli cells that had been permeabilized.
(Broth dilution looks for growth in wells or tubes with falling amounts of substance.)

Test [2] deals with rifampicin-resistant S. aureus. Kind of test: MIC, broth microdilution assay. Format: cell-based. As to conditions: Staphylococcus aureus, read-out: MIC rif^R -S. aureus. Here is the method: as §1, §2, §3, §4, §5
The subject of test [3] is wild-type E. coli. Kind of test: MIC, broth microdilution assay. Format: cell-based. The following applies: Escherichia coli. On the procedure:
as §1, §2, §3, §4, §5

For test [4], the target named is purified RNA polymerase derived from S. aureus. Put plainly: in vitro transcription reaction, RNA polymerase inhibition. Format: biochemical. Here is the method:
(§6) RNA polymerase inhibition activity of a compound can be detected by including the compound in an in vitro transcription reaction and comparing the level of transcription that occurs in the presence and absence of the compound. The RNA polymerase may be from a bacterial source or, as a control, from an animal source. A typical transcription reaction (50μl) contains transcription buffer (50 mM Tris-HCl, pH 8.0, 200 mM KCl, 10 mM MgCl2,10 mM DTT and 1.5 μM BSA); 1 μg of DNA template; 4 μM UTP containing 5 μCi of [α-^2-32 P] UTP; 400 μM each of ATP, GTP, and CTP; and RNA polymerase. After incubation for 60 minutes at 25° C., the reaction is terminated with 100 μl 10% TCA, which also precipitates the newly transcribed RNA, and incorporation of radioactivity into RNA is quantified. The IC50 (expressed in μg/ml) is the concentration of a compound that inhibits RNA polymerase activity by 50%.
(§7) The compounds of the invention were included at a range of concentrations in in vitro transcription reactions containing purified RNA polymerase derived from either S. aureus, E. coli, or human, and template DNA comprising a pTaq promoter. The reaction conditions and analytical method are described above.

In test [5] the target is purified RNA polymerase derived from E. coli (Escherichia coli, UniProt P0A7Z4+P0A8T7+P0A8V2). Described as above. Format: biochemical. Here is the method: as §6, §7
The next test deals with human pol II (Homo sapiens, UniProt P24928+P30876). The description is as above. The test is classed as biochemical. On the procedure: RNA polymerase inhibition activity of a compound can be detected by including the compound in an in vitro transcription reaction and comparing the level of transcription that occurs in the presence and absence of the compound. The RNA polymerase may be from a bacterial source or, as a control, from an animal source. […] UTP; 400 μM each of ATP, GTP, and CTP; and RNA polymerase. After incubation for 60 minutes at 25° C., the reaction is terminated with 100 μl 10% TCA, which also precipitates the newly transcribed RNA, and incorporation of radioactivity into RNA is quantified.
In vitro and/or in vivo criteria may used to determine specificity. That is, the inhibitory activity of a particular compound towards an animal RNA polymerase may be measured in parallel with a bacterial RNA polymerase.
as §7

Test [6] deals with E. coli cells that had been permeabilized. Put plainly: MBC determination. The following applies: Escherichia coli. Format: cell-based. Here is the method:
as §1
(§8) The minimum bactericidal concentration (MBC) is defined as the concentration of antimicrobial agent from which no colonies grow on petri plates or in the medium. […] Typically, the wells from a MIC microliter plate are made using a 96-well inoculation grid into a fresh microliter plate containing 100 μL Mueller-Hinton broth per well. The MBC plates are incubated at 37° C. for 16-20 hrs and the MBC values are determined.
as §5

The test system of test [7] is wild-type S. aureus. Kind of test: MBC determination. The following applies: Staphylococcus aureus. Format: cell-based. On the procedure:
as §1, §8, §5

Test [8] relates to wild-type E. coli. Kind of test: MBC determination. As to conditions: Escherichia coli. The test is classed as cell-based. Here is the method:
as §1, §8, §5

In test [9] the test system is E. coli cells that had been permeabilized. Kind of test: MIC, broth microdilution assay. Format: cell-based. As to conditions: Escherichia coli, read-out: MIC E. coli*. Here is the method: Within 15 minutes of preparation, […] of the adjusted inoculum suspension is added to the microliter plate.

Sequence of purified RNA polymerase derived from S. aureus (P0A0J0 whole entry): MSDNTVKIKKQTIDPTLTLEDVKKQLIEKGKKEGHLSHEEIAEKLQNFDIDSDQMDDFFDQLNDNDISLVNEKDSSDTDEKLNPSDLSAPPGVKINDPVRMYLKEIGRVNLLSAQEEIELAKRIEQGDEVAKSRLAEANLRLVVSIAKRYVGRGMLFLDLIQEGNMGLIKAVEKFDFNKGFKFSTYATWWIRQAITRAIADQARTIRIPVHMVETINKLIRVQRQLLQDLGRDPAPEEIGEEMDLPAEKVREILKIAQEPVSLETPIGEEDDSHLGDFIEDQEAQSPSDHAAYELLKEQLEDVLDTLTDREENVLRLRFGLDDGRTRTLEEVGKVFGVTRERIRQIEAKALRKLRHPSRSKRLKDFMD
Sequence of purified RNA polymerase derived from S. aureus (P0A8T7 whole entry, further chain): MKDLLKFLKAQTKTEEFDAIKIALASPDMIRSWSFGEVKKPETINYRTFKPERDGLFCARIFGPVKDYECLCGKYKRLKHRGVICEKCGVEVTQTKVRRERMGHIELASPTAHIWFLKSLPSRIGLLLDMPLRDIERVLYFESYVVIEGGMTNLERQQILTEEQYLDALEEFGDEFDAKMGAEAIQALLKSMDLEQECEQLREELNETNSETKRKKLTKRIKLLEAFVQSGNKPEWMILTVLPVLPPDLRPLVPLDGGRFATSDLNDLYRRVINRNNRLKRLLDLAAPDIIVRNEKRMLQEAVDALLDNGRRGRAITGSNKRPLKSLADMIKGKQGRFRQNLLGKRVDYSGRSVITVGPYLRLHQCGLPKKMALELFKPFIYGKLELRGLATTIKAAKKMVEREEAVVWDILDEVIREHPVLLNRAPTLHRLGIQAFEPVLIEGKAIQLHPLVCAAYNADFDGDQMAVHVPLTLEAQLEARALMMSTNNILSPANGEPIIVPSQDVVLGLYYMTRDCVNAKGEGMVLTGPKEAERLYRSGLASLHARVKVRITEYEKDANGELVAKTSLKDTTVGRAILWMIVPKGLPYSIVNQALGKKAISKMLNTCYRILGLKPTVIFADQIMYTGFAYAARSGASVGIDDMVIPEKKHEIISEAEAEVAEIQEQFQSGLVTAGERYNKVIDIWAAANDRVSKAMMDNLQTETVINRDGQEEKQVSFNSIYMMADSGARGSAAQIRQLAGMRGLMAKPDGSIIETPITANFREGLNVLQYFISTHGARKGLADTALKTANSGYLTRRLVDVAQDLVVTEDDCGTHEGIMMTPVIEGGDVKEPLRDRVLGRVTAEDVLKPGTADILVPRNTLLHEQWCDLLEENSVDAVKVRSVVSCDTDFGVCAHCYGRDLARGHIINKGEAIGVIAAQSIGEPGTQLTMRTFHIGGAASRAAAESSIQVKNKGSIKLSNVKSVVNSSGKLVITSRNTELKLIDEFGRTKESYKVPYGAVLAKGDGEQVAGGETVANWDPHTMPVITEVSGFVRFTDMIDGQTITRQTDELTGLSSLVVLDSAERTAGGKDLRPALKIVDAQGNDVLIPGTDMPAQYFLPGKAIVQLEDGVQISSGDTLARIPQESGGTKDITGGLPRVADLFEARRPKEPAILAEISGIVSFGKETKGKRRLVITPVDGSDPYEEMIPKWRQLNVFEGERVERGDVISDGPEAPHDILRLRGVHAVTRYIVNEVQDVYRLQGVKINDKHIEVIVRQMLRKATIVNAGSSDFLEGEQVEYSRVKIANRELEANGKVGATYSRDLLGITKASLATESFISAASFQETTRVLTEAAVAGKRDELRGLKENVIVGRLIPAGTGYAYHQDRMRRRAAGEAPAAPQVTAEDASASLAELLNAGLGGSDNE
Sequence of purified RNA polymerase derived from S. aureus (P0A7Z4 whole entry, further chain): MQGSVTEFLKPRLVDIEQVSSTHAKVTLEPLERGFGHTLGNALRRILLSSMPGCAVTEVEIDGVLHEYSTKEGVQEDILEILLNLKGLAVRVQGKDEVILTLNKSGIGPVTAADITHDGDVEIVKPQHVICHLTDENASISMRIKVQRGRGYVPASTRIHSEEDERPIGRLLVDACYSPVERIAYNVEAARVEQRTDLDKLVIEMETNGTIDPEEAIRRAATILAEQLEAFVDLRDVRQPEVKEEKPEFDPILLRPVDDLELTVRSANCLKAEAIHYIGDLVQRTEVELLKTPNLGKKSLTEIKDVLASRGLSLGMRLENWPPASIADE
Sequence of purified RNA polymerase derived from S. aureus (P0A8V2 whole entry, further chain): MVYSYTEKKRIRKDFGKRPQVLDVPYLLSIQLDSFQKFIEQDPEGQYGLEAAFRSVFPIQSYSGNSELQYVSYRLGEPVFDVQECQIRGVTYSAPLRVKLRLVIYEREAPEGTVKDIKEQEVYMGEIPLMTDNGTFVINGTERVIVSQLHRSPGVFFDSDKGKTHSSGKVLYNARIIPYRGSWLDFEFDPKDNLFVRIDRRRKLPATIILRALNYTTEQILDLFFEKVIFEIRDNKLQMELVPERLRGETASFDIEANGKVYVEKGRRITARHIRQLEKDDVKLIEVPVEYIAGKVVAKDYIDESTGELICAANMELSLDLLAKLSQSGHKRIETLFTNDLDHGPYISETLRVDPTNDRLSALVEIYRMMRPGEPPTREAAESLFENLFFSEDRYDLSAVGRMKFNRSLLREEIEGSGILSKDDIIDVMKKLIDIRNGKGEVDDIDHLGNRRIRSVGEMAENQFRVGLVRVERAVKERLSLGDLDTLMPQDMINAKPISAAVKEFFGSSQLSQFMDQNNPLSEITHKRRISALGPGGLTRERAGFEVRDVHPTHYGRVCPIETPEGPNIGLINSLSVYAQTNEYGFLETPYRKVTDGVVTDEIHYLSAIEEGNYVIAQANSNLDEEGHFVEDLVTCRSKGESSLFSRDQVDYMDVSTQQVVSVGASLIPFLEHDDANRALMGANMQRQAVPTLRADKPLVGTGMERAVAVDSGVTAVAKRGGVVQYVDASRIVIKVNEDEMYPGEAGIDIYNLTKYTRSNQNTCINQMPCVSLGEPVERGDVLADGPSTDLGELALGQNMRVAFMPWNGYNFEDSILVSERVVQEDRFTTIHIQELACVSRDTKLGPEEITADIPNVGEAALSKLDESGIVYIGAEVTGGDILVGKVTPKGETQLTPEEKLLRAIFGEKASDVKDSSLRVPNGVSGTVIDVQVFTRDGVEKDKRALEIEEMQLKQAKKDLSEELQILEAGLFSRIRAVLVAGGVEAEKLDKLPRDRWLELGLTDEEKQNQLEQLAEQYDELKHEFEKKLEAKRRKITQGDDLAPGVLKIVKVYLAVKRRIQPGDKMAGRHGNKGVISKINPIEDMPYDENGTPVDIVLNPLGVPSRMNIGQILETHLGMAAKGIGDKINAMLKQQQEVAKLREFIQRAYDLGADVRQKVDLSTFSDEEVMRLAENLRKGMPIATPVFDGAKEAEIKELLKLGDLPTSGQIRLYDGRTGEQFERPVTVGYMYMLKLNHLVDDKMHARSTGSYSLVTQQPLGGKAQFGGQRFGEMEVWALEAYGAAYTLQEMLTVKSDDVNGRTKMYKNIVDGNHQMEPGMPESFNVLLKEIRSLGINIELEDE

For `CC1(C)S[C@@H]2[C@H](NC(=O)[C@H](N)c3ccccc3)C(=O)N2[C@H]1C(=O)O` [Amp, Ampicillin, reference compound], the minimal inhibitory concentration (MIC) in the test with wild-type S. aureus [1] came to 8 µg/mL (≈ 22.9 µM); in [2] it was 4 µg/mL (≈ 11.4 µM); in the test with wild-type E. coli [3] it was 2 µg/mL (≈ 5.72 µM).
In the case of `NCCNc1ccc([N+](=O)[O-])c(NCCOc2ccccc2)c1` [Compound (A), N^1-(2-aminoethyl)-4-nitro-N^3-(2-phenoxyethyl)-1,3-benzenediamine], the IC50 in test [4] (pTaq promoter template DNA, 60 minutes at 25° C., read-out: IC50 S. aureus RNA polymerase (converted)) is 12.6 µM; in test [5] (pTaq promoter template DNA, 60 minutes at 25° C., read-out: IC50 E. coli RNA polymerase (converted)), 25.3 µM; at human pol II (pTaq promoter template DNA, 60 minutes at 25° C., read-out: IC50 human pol II (converted)), 316 µM. Further, the “selectivity for bacterial RNA polymerase relative to human RNA polymerase” value on human pol II (bacterial (S. aureus, E. coli) versus human RNA polymerase) is “highest degree of selectivity”. Further, the values for the MIC (in the test on wild-type S. aureus [1]; in test [2]; in the test with wild-type E. coli [3]) were 6 µg/mL (≈ 19 µM), 13 µg/mL (≈ 41.1 µM) and 13 µg/mL (≈ 41.1 µM), respectively. In addition, the values for the MBC (in [6]; in the test on wild-type S. aureus [7]; in the test on wild-type E. coli [8]) were 25 µg/mL (≈ 79 µM), 25 µg/mL (≈ 79 µM) and 50 µg/mL (≈ 158 µM), respectively.
Regarding `NCCNc1ccc([N+](=O)[O-])c(N2CCN(c3ccc([N+](=O)[O-])cc3)CC2)c1` [Compound (B)], the pIC50 in test [4] was 4.98; in [5], 4.63; against human pol II, 3.98. The minimum inhibitory concentration (MIC) in test [9] came out at 4 µg/mL (≈ 10.4 µM); in the test with wild-type S. aureus [1], 1 µg/mL (≈ 2.59 µM); in [2], 2 µg/mL (≈ 5.18 µM); against wild-type E. coli [3], 8 µg/mL (≈ 20.7 µM). In addition, the results for the MBC (in test [6]; in the test on wild-type S. aureus [7]; against wild-type E. coli [8]) were 2 µg/mL (≈ 5.18 µM), 8 µg/mL (≈ 20.7 µM) and 32 µg/mL (≈ 82.8 µM), respectively.
For the molecule `CO[C@H]1/C=C/O[C@@]2(C)Oc3c(C)c(O)c4c(O)c(c(/C=N/N5CCN(C)CC5)c(O)c4c3C2=O)NC(=O)/C(C)=C\C=C\[C@H](C)[C@H](O)[C@@H](C)[C@@H](O)[C@@H](C)[C@H](OC(C)=O)[C@@H]1C` [Rif, rifampin, reference compound], the MIC is < 0.03 µg/mL in test [9], < 0.03 µg/mL with wild-type S. aureus [1], > 64 µg/mL in [2] and 4 µg/mL (≈ 4.86 µM) against wild-type E. coli [3].
